{"source": "patent EP0385952A2", "about": "“Use of a naphthalenmethanamino derivative as antiinflammatory agent and pharmaceutical compositions containing it” (SANDOZ AG, priority 1989, dated 1990)", "key": {"[1]": {"system": "Macrophages isolated from the bone marrow of mice", "assay": "Zymosan-stimulated release of hydrogen peroxide", "type": "cell-based", "settings": "Mus musculus, Macrophage, 2 hours at 37° C, read-out: IC₅₀, zymosan-stimulated release of hydrogen peroxide", "description": "The production of hydrogen peroxide is used as a measure for the respiratory burst of phagocytic cells. Macrophages 10 to 14 days old, isolated from the bone marrow of mice are incubated for 10 to 30 minutes in the presence of the test compound. Zymosan (0.5 ml) is then added as phagocytic stimulant and the mixture is incubated for a further 2 hours at 37° C in the presence of homovallinic acid (0.5 ml, 400 µM) and horse radish peroxidase (4 U/ml). The reaction is stopped by the addition of 0.25 ml 0.1 M glycine-NaOH buffer, pH 12, containing 25 mM EDTA, the samples centrifuged at 2200 g for 10 minutes, and the homovallinic acid oxidation product, as a measure of the amount of H₂O₂ produced, measured fluorimetrically."}, "[2]": {"system": "5,12-lipoxygenase", "assay": "5,12-lipoxygenase inhibition (neutrophil functions)", "type": "cell-based", "settings": "read-out: IC₅₀ for 5,12-lipoxygenase"}, "[3]": {"system": "bovine platelets", "assay": "Thrombin-stimulated release from platelets", "type": "cell-based", "settings": "Bos taurus, Platelet"}, "[4]": {"system": "mast cells", "assay": "Polymyxin-stimulated release from mast cells", "type": "cell-based", "settings": "Mast cell"}, "[5]": {"system": "mice", "assay": "Croton oil-induced pinnal swelling in mice (irritant contact dermatitis, 2.1.2.)", "type": "in vivo", "settings": "simultaneous, topical, pinnal weight after 6 hours", "description": "Skin irritation with arachidonic acid or cantharidin is often used to experimentally induce inflammation in order to evaluate the anti-inflammatory activity of a compound [see e.g. Inflammation 8 (1984) 134-135; 10 (1986) 205-214]. NMRI mice (8 animals per group) receive 10 µl of a 10 % solution of arachidonic acid [J.M. Young et al., J. Invest. Derm. 82 (1986) 367-371] in acetone or, respectively, 0.08 % cantharidin [K.E. Swingle et al., Arch. Int. Pharmacodyn. Ther. 254 (1981) 168-176] in acetone applied to the medial and lateral surface of the right external ear. Treatment is performed either prophylactically 30 minutes before irritation (arachidonic acid) or, respectively, either simultaneously with the application of irritant solution or therapeutically 20 minutes after irritation (cantharidin), by a single epicutaneous application of the test compound dissolved in a mixture of N,N-dimethylacetamide, acetone and alcohol (2:2:4). The evaluation of the test group is effected by comparison with a control group of animals having received on the right ear lobe only the carrier substance or the irritant solution. The animals are killed 1.5 hours (arachidonic acid) or, respectively, 17 hours (cantharidin) after application of the irritant and efficacy in assessed by determination of the differences in auricular weight. Differences in weights (D) of right (involved) and left (uninvolved) pinnae of animals treated with test compound and arachidonic acid or cantharidin (T-group) are compared with differences in mice treated with arachidonic acid only or cantharidin only (C-group). Efficacy (%) is calculated according to the equation: [formula]\nThis model is similar to the above (see 2.1.1.). Skin inflammation is induced with 15 µl of 0.23 % croton oil in a mixture of dimethylacetamide, acetone and ethanol (2:4:4), or with 10 µl of 0.005 % TPA [12-O-tetradecanoylphorbol-13-acetate; Sigma] prepared in acetone with 0.5 % dimethylsulfoxide. Topical treatment is performed either simultaneously with the irritation (croton oil) or 20 minutes after the application (TPA). The test compound is prepared in DAE. Efficacy is assessed 6 hours after onset of irritation by determination of the auricular weight as described above."}, "[6]": {"system": "NMRI mice", "assay": "Allergic contact dermatitis to oxazolone (2.3.)", "type": "in vivo", "settings": "therapeutic, test concentration 3.6 %, topical twice, pinnal weight after 24 hours, 0̸ = no activity", "description": "Skin irritation with arachidonic acid or cantharidin is often used to experimentally induce inflammation in order to evaluate the anti-inflammatory activity of a compound [see e.g. Inflammation 8 (1984) 134-135; 10 (1986) 205-214]. NMRI mice (8 animals per group) receive 10 µl of a 10 % solution of arachidonic acid [J.M. Young et al., J. Invest. Derm. 82 (1986) 367-371] in acetone or, respectively, 0.08 % cantharidin [K.E. Swingle et al., Arch. Int. Pharmacodyn. Ther. 254 (1981) 168-176] in acetone applied to the medial and lateral surface of the right external ear. […] The animals are killed 1.5 hours (arachidonic acid) or, respectively, 17 hours (cantharidin) after application of the irritant and efficacy in assessed by determination of the differences in auricular weight. […] Efficacy (%) is calculated according to the equation: [formula]\nThe inhibition of allergic contact dermatitis to oxazolone in mice is determined. […] 24 hours after skin testing treatment-related inhibition of contact dermatitis is assessed by pinnal weight as described above (see 2.1.1.). […]"}}, "note": "Read-outs that look alike come from different tables or passages of the source. Marks after values point to notes of the source that are not given here.", "data": [{"molecule": "CN(C/C=C/c1ccc(O)cc1)Cc1cccc2ccccc12", "note": "[compound of the invention, (E)-N-methyl-N-[3-(4-hydroxyphenyl)-2-propenyl]-1-naphthalene-methanamine]", "values": [{"measurement": "IC50", "setting": "[1]", "result": 2.1, "unit": "µM"}, {"measurement": "IC50", "setting": "[2]", "result": 45, "unit": "µM"}, {"measurement": "IC50", "setting": "[3]; read-out: IC₅₀ for thrombin-stimulated release of N-glucosaminidase", "result": "> 100", "unit": "µM"}, {"measurement": "IC50", "setting": "[3]; read-out: IC₅₀ for thrombin-stimulated release of serotonin", "result": "> 100", "unit": "µM"}, {"measurement": "IC50", "setting": "[4]; read-out: IC₅₀ for polymyxin-stimulated release of histamine", "result": "> 100", "unit": "µM"}, {"measurement": "IC50", "setting": "[4]; read-out: IC₅₀ for polymyxin-stimulated release of β-glucosaminidase", "result": "> 100", "unit": "µM"}, {"measurement": "Efficacy (%)", "setting": "[5]; test concentration 1.2 %", "result": "67** %"}, {"measurement": "Efficacy (%)", "setting": "[5]; test concentration 3.6 %", "result": "81** %"}, {"measurement": "Efficacy (%)", "setting": "[6]", "result": "42** %"}]}]}
